{"source": "patent US20220274945A1", "about": "“SUBSTITUTED THIOPHENE CARBOXAMIDES AND DERIVATIVES THEREOF AS MICROBICIDES” (Bayer Aktiengesellschaft, priority 2019, published 2022)", "test": "Log P by HPLC on reversed phase columns (EEC directive 79/831 Annex V.A8)", "assay_type": "physicochemical", "details": "for chromatographic logP: reversed phase HPLC columns", "description": "In the above tables, measurement of Log P values was performed according to EEC directive 79/831 Annex V.A8 by HPLC (High Performance Liquid Chromatography) on reversed phase columns with the following methods: [^a] […] If more than one Log P value is available within the same method, all the values are given and separated by “+”. Calibration was done with straight-chain alkan2-ones (with 3 to 16 carbon atoms) with known Log P values (measurement of Log P values using retention times with linear interpolation between successive alkanones). Lambda-max-values were determined using UV-spectra from 200 nm to 400 nm and the peak values of the chromatographic signals."}
{"smiles": "O=C(NC1(C(=O)OCc2ccccc2)CC1)c1sc(Cl)c(Cl)c1Br", "note": "[I.25]", "values": [{"measurement": "LogP", "value": "4.28^[a]"}]}
{"smiles": "CCOC(=O)C1(NC(=O)c2sc(Br)cc2Cl)CC1", "note": "[IVb.01]", "values": [{"measurement": "LogP", "value": "2.84^[a]"}]}
{"smiles": "COC(=O)C1(NC(=O)c2cc(Cl)c(Cl)s2)CC1", "note": "[V.04]", "values": [{"measurement": "LogP", "value": "2.49^[a]"}]}
{"smiles": "CC(C)OC(=O)C1(NC(=O)c2cc(Br)c(Br)s2)CC1", "note": "[V.02]", "values": [{"measurement": "LogP", "value": "3.25^[a]"}]}
{"smiles": "O=C(NC1(C(=O)OC2CSC2)CC1)c1sc(Cl)c(Cl)c1Br", "note": "[I.71]", "values": [{"measurement": "LogP", "value": "3.87^[a]"}]}
{"smiles": "O=C(NC1(C(=O)OC2CSC2)CC1)c1sc(Br)c(Br)c1Br", "note": "[I.75]", "values": [{"measurement": "LogP", "value": "4.85^[a]"}]}
{"smiles": "COC(=O)C1(NC(=O)c2sc(Cl)c(Cl)c2F)CC1", "note": "[I.45]", "values": [{"measurement": "LogP", "value": "2.65^[a]"}]}
{"smiles": "O=C(NC1(C(=O)Oc2ccccc2)CC1)c1sc(Cl)c(Cl)c1Br", "note": "[I.66]", "values": [{"measurement": "LogP", "value": "4.19^[a]"}]}
{"smiles": "O=C(NC1(C(=O)OCC2CC2)CC1)c1sc(Br)c(Br)c1Br", "note": "[I.67]", "values": [{"measurement": "LogP", "value": "4.02^[a]"}]}
{"smiles": "CC(C)COC(=O)C1(NC(=O)c2sc(Br)c(Br)c2Br)CC1", "note": "[I.56]", "values": [{"measurement": "LogP", "value": "4.40^[a]"}]}
{"smiles": "O=C(NC1(C(=O)OC2CCOCC2)CC1)c1sc(Br)c(Br)c1Br", "note": "[I.68]", "values": [{"measurement": "LogP", "value": "3.26^[a]"}]}
{"smiles": "O=C(NC1(C(=O)OC2CCC2)CC1)c1sc(Br)c(Br)c1F", "note": "[I.36]", "values": [{"measurement": "LogP", "value": "3.71^[a]"}]}
{"smiles": "CCOC(=O)C1(NC(=O)c2sc(Br)cc2F)CC1", "note": "[IVb.03]", "values": [{"measurement": "LogP", "value": "2.46^[a]"}]}
{"smiles": "O=C(NC1(C(=O)OCC(F)(F)F)CC1)c1sc(Br)c(Br)c1Br", "note": "[I.74]", "values": [{"measurement": "LogP", "value": "3.94^[a]"}]}
{"smiles": "O=C(NC1(C(=O)OC2CCCC2)CC1)c1sc(Br)c(Br)c1I", "note": "[I.59]", "values": [{"measurement": "LogP", "value": "4.37^[a]"}]}
{"smiles": "CCCOC(=O)C1(NC(=O)c2sc(Br)c(Br)c2I)CC1", "note": "[I.41]", "values": [{"measurement": "LogP", "value": "3.85^[a]"}]}
{"smiles": "O=C(NC1(C(=O)OC2CCC2)CC1)c1sc(Br)c(Br)c1I", "note": "[I.35]", "values": [{"measurement": "LogP", "value": "3.99^[a]"}]}
{"smiles": "O=C(NC1(C(=O)OC2CCC2)CC1)c1sc(Br)c(Br)c1Br", "note": "[I.38]", "values": [{"measurement": "LogP", "value": "4.10^[a]"}]}
{"smiles": "O=C(NC1(C(=O)O)CC1)c1sc(Br)c(Br)c1F", "note": "[I.02]", "values": [{"measurement": "LogP", "value": "2.19^[a]"}]}
{"smiles": "C=CCOC(=O)C1(NC(=O)c2sc(Br)c(Br)c2F)CC1", "note": "[I.24]", "values": [{"measurement": "LogP", "value": "3.33^[a]"}]}
{"smiles": "CCCCOC(=O)C1(NC(=O)c2sc(Br)c(Br)c2Br)CC1", "note": "[I.57]", "values": [{"measurement": "LogP", "value": "4.44^[a]"}]}
{"smiles": "CC(C)COC(=O)C1(NC(=O)c2sc(Cl)c(Cl)c2Br)CC1", "note": "[I.28]", "values": [{"measurement": "LogP", "value": "4.31^[a]"}]}
{"smiles": "C#CCOC(=O)C1(NC(=O)c2sc(Br)c(Br)c2I)CC1", "note": "[I.51]", "values": [{"measurement": "LogP", "value": "3.40^[a]"}]}
{"smiles": "CCOC(=O)C1(NC(=O)c2scc(Br)c2F)CC1", "note": "[IVa.01, Ethyl 1-{[(4-bromo-3-fluoro-2-thienyl)carbonyl]amino}cyclopropanecarboxylate]", "values": [{"measurement": "chromatographic logP", "setting": "method [a]: LC-UV, acidic range, 0.1% formic acid in water and acetonitrile as eluent", "value": 2.37}, {"measurement": "chromatographic logP", "setting": "value in the preparation example, method letter not given", "value": 2.39}]}
{"smiles": "C[Si](C)(C)COC(=O)C1(NC(=O)c2sc(Cl)c(Cl)c2Br)CC1", "note": "[I.65]", "values": [{"measurement": "LogP", "value": "5.00^[a]"}]}
{"smiles": "CCCOC(=O)C1(NC(=O)c2sc(Br)c(Br)c2Br)CC1", "note": "[I.39]", "values": [{"measurement": "LogP", "value": "3.92^[a]"}]}
{"smiles": "O=C(NC1(C(=O)OCc2ccccc2)CC1)c1sc(Br)c(Br)c1Br", "note": "[I.50]", "values": [{"measurement": "LogP", "value": "4.37^[a]"}]}
{"smiles": "CCCCOC(=O)C1(NC(=O)c2sc(Br)c(Br)c2F)CC1", "note": "[I.21]", "values": [{"measurement": "LogP", "value": "3.96^[a]"}]}
{"smiles": "C[Si](C)(C)COC(=O)C1(NC(=O)c2sc(Br)c(Br)c2Br)CC1", "note": "[I.69]", "values": [{"measurement": "LogP", "value": "4.97^[a]"}]}
{"smiles": "CCCCOC(=O)C1(NC(=O)c2sc(Cl)c(Cl)c2Br)CC1", "note": "[I.29]", "values": [{"measurement": "LogP", "value": "4.34^[a]"}]}
{"smiles": "C=CCOC(=O)C1(NC(=O)c2sc(Br)c(Br)c2Br)CC1", "note": "[I.48]", "values": [{"measurement": "LogP", "value": "3.77^[a]"}]}
{"smiles": "O=C(NC1(C(=O)OC2CCC2)CC1)c1sc(Cl)c(Cl)c1Br", "note": "[I.30]", "values": [{"measurement": "LogP", "value": "4.07^[a]"}]}
{"smiles": "CCOC(=O)C1(NC(=O)c2sc(Br)cc2Br)CC1", "note": "[IVb.05]", "values": [{"measurement": "LogP", "value": "2.92^[a]"}]}
{"smiles": "CCCOC(=O)C1(NC(=O)c2sc(Cl)c(Cl)c2Br)CC1", "note": "[I.31]", "values": [{"measurement": "LogP", "value": "3.89^[a]"}]}
{"smiles": "C#CCOC(=O)C1(NC(=O)c2sc(Br)c(Br)c2Br)CC1", "note": "[I.47]", "values": [{"measurement": "LogP", "value": "3.44^[a]"}]}
{"smiles": "C=CCOC(=O)C1(NC(=O)c2sc(Br)c(Br)c2I)CC1", "note": "[I.52]", "values": [{"measurement": "LogP", "value": "3.71^[a]"}]}
{"smiles": "O=C(NC1(C(=O)OCC2CC2)CC1)c1sc(Cl)c(Cl)c1Br", "note": "[I.46]", "values": [{"measurement": "LogP", "value": "4.05^[a]"}]}
{"smiles": "CCOC(=O)C1(NC(=O)c2sc(Cl)c(Cl)c2I)CC1", "note": "[I.04]", "values": [{"measurement": "LogP", "value": "3.39^[a]"}]}
{"smiles": "CC(C)(C)OC(=O)C1(NC(=O)c2sc(Br)c(Br)c2F)CC1", "note": "[I.19]", "values": [{"measurement": "LogP", "value": "3.91^[a]"}]}
{"smiles": "N#CCOC(=O)C1(NC(=O)c2sc(Br)c(Br)c2Br)CC1", "note": "[I.72]", "values": [{"measurement": "LogP", "value": "3.16^[a]"}]}
{"smiles": "O=C(NC1(C(=O)OCc2ccccc2)CC1)c1sc(Br)c(Br)c1F", "note": "[I.17]", "values": [{"measurement": "LogP", "value": "3.94^[a]"}]}
{"smiles": "CCOC(=O)C1(NC(=O)c2sc(Cl)c(Cl)c2F)CC1", "note": "[I.44]", "values": [{"measurement": "LogP", "value": "3.05^[a]"}]}
{"smiles": "CCCOC(=O)C1(NC(=O)c2sc(Br)c(Br)c2Cl)CC1", "note": "[I.40]", "values": [{"measurement": "LogP", "value": "3.91^[a]"}]}
{"smiles": "O=C(NC1(C(=O)OC2CCC2)CC1)c1sc(Br)c(Br)c1Cl", "note": "[I.42]", "values": [{"measurement": "LogP", "value": "4.17^[a]"}]}
{"smiles": "CCCOC(=O)C1(NC(=O)c2sc(Br)c(Br)c2F)CC1", "note": "[I.37]", "values": [{"measurement": "LogP", "value": "3.54^[a]"}]}
{"smiles": "CCOC(=O)C1(NC(=O)c2cc(Br)c(Br)s2)CC1", "note": "[V.01]", "values": [{"measurement": "LogP", "value": "2.90^[a]"}]}
{"smiles": "O=C(NC1(C(=O)OC2CCCC2)CC1)c1sc(Br)c(Br)c1Br", "note": "[I.55]", "values": [{"measurement": "LogP", "value": "4.47^[a]"}]}
{"smiles": "C=CCOC(=O)C1(NC(=O)c2sc(Cl)c(Cl)c2Br)CC1", "note": "[I.34]", "values": [{"measurement": "LogP", "value": "3.66^[a]"}]}
{"smiles": "O=C(NC1(C(=O)OC2CCCC2)CC1)c1sc(Cl)c(Cl)c1Br", "note": "[I.26]", "values": [{"measurement": "LogP", "value": "4.37^[a]"}]}
{"smiles": "CC(C)OC(=O)C1(NC(=O)c2sc(Br)c(Br)c2F)CC1", "note": "[I.22]", "values": [{"measurement": "LogP", "value": "3.52^[a]"}]}
{"smiles": "CC(C)OC(=O)C1(NC(=O)c2sc(Br)c(Br)c2Br)CC1", "note": "[I.58]", "values": [{"measurement": "LogP", "value": "3.98^[a]"}]}
{"smiles": "CC(C)OC(=O)C1(NC(=O)c2sc(Cl)c(Cl)c2Br)CC1", "note": "[I.32]", "values": [{"measurement": "LogP", "value": "3.86^[a]"}]}
{"smiles": "CC(C)OC(=O)C1(NC(=O)c2sc(Br)c(Br)c2I)CC1", "note": "[I.62]", "values": [{"measurement": "LogP", "value": "3.87^[a]"}]}
{"smiles": "CC(C)(C)OC(=O)C1(NC(=O)c2sc(Br)c(Br)c2Br)CC1", "note": "[I.49]", "values": [{"measurement": "LogP", "value": "4.40^[a]"}]}
{"smiles": "CC(C)COC(=O)C1(NC(=O)c2sc(Br)c(Br)c2F)CC1", "note": "[I.20]", "values": [{"measurement": "LogP", "value": "3.92^[a]"}]}
{"smiles": "O=C(NC1(C(=O)OCC(F)(F)F)CC1)c1sc(Cl)c(Cl)c1Br", "note": "[I.64]", "values": [{"measurement": "LogP", "value": "3.91^[a]"}]}
{"smiles": "O=C(NC1(C(=O)OC2CCCC2)CC1)c1sc(Br)c(Br)c1F", "note": "[I.18]", "values": [{"measurement": "LogP", "value": "3.99^[a]"}]}
{"smiles": "C#CCOC(=O)C1(NC(=O)c2sc(Cl)c(Cl)c2Br)CC1", "note": "[I.33]", "values": [{"measurement": "LogP", "value": "3.35^[a]"}]}
{"smiles": "CCOC(=O)C1(NC(=O)c2sc(Br)cc2I)CC1", "note": "[IVb.02]", "values": [{"measurement": "LogP", "value": "2.98^[a]"}]}
{"smiles": "O=C(NC1(C(=O)OC2CCOCC2)CC1)c1sc(Cl)c(Cl)c1Br", "note": "[I.70]", "values": [{"measurement": "LogP", "value": "3.23^[a]"}]}
{"smiles": "CCOC(=O)C1(NC(=O)c2sccc2F)CC1", "note": "[IVc.01]", "values": [{"measurement": "LogP", "value": "1.65^[a]"}]}
